For five molecules, inhibition and IC50 results are on record in patent EP1171440B1, “SUBSTITUTED-3-CYANO-[1.7],[1.5], AND [1.8]-NAPHTHYRIDINE INHIBITORS OF TYROSINE KINASES” (Wyeth Holdings Corporation, priority 1999, dated 2000).

Experiment [1] deals with T1, EGF-R Kinase (recombinant enzyme) (Homo sapiens, UniProt P00533).
T1 construct: containing the EGFR cDNA encoding amino acids 645 - 1186 preceded by Met-Ala-(His)6; made in house; host or cells: Sf9 insect cells infected with recombinant baculovirus vHcEGFR52
T1 sequence (P00533 669-1210): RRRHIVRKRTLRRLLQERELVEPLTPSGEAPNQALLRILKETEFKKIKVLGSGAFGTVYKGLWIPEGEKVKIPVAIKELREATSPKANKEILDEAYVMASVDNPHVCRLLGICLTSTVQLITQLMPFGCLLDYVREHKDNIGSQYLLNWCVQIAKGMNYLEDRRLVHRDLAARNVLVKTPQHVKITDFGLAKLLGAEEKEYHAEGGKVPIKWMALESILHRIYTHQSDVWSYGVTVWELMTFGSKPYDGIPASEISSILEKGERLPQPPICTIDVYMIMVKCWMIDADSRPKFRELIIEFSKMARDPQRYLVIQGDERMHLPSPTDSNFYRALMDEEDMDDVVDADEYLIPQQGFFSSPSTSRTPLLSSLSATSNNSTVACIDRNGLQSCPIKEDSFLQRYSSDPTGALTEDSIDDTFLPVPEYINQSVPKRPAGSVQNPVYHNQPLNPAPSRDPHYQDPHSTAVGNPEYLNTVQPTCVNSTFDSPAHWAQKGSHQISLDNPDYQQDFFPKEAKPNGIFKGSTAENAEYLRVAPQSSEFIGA
Description: Inhibition of Epidermal Growth Factor Receptor Kinase (EGF-R) using recombinant enzyme, RR-SRC peptide phosphorylation with 33P-ATP. The experiment is classed as biochemical. The protocol:
Representative test compounds were evaluated for their ability to inhibit the phosphorylation of the tyrosine residue of a peptide substrate catalyzed by the enzyme epidermal growth factor receptor kinase. […] The enzyme used in this assay is the His-tagged cytoplasmic domain of EGFR. A recombinant baculovirus (vHcEGFR52) was constructed containing the EGFR cDNA encoding amino acids 645 - 1186 preceded by Met-Ala-(His)6 . Sf9 cells in 100 mm plates were infected at an moi of 10 pfu/cell and cells were harvested 48 h post infection. A cytoplasmic extract was prepared using 1% Triton X-100 and applied to Ni-NTA column. After washing the column with 20 mM imidazole, HcEGFR was eluted with 250 mM imidazole (in 50 mM Na2HPO4, pH 8.0, 300 mM NaCl). Fractions collected were dialyzed against 10 mM HEPES, pH 7.0, 50 mM NaCl, 10% glycerol, 1ug/mL antipain and leupeptin and 0.1 mM Pefabloc SC. The protein was frozen in dry ice/methanol and stored -70° C.
Test compounds were made into 10 mg/mL stock solutions in 100% dimethylsulfoxide (DMSO). Prior to experiment, stock solutions were diluted to 500 uM with 100% DMSO and then serially diluted to the desired concentration with HEPES buffer (30 mM HEPES pH 7.4).
For the enzyme reaction, 10 uL of each inhibitor (at various concentrations) were added to each well of a 96-well plate. To this was added 3 uL of enzyme (1:10 dilution in 10mM HEPES, pH 7.4 for final conc. of 1:120). This was allowed to sit for 10 min on ice and was followed by the addition of 5 ul peptide (80 uM final conc.), 10ul of 4X Buffer (Table A), 0.25 uL ^33P-ATP and 12 uL H2O. The reaction was allowed to run for 90 min at room temperature and was followed by spotting the entire volume on to precut P81 filter papers. The filter discs were washed 2X with 0.5% phosphoric acid and radioactivity was measured using a liquid scintillation counter. Table A
The IC50 is the concentration of test compound needed to reduce the total amount of phosphorylated substrate by 50%. The % inhibition of the test compound was determined for at least three different concentrations and the IC50 value was evaluated from the dose response curve. […] CPM(control) is in units of counts per minute and was a number expressing the amount of radiolabeled ATP (γ-^33P) incorporated into the RR-SRC peptide substrate by the enzyme after 90 minutes at room temperature in the absence of test compound as measured by liquid scintillation counting. The CPM values were corrected for the background counts produced by ATP in the absence of the enzymatic reaction. Where it was possible to determine an IC50 value, this is reported in TABLE 1 otherwise the % inhibition at 0.5 µM concentration of test compound is shown in TABLE 1.

In another experiment the test system is A431. Description: Inhibition of Cancer Cell Growth as Measured by Cell Number (Sulforhodamine B). In kind it is cell-based, Human. The note with it: 48 hours exposure. The protocol:
(§1) After 48 hours exposure to test compounds, cells were fixed with trichloroacetic acid, and stained with Sulforhodamine B. After washing with trichloroacetic acid, bound dye was solubilized in 10 mM Tris base and optical density was determined using a plate reader. Under conditions of the assay the optical density is proportional to the number of cells in the well. […] The test procedure is described in details by Philip Skehan et. al, J.Natl. Canc. […] The Her2Neu cell line is a 3T3 line that has bbeen transfected with Her2 receptor kinase.

The subject of another experiment is MDA435. Described as above. In kind it is cell-based, Human. To be noted: Homo sapiens, MDA435, 48 h, 48 hours exposure, read-out: IC50. Here is the method:
as §1

The test system of the next experiment is SKBR3. The description is as above. The experiment is classed as cell-based, Human. The note with it: Homo sapiens, SK-BR-3, 48 hours exposure, read-out: IC50. The protocol: as §1
Another experiment deals with SW620. The experiment is described as above. In kind it is cell-based, Human. The note with it: Homo sapiens, SW-620, 48 hours exposure, read-out: IC50. Here is the method: as §1
In another experiment the test system is 3T3. Described as above. In kind it is cell-based. Here is the method: (§2) Human tumor cell lines were plated in 96-well plates (250 µl/well, 1-6 x 10^4 cells/ml) in RPMI 1640 medium, containing 5% FBS (Fetal Bovine Serum). […] After 48 hours exposure to test compounds, cells were fixed with trichloroacetic acid, and stained with Sulforhodamine B. After washing with trichloroacetic acid, bound dye was solubilized in 10 mM Tris base and optical density was determined using a plate reader. Under conditions of the assay the optical density is proportional to the number of cells in the well. IC50s (concentrations causing 50% inhibition of cell growth) were determined from the growth inhibition plots. The test procedure is described in details by Philip Skehan et. al, J.Natl. Canc. Inst., 82, 1107-1112 (1990). […] Information about some of the cell lines used in these test procedures is available from the American […]: Cell Lines and Hybridomas, 1994 Reference Guide, 8th Edition. The Her2Neu cell line is a 3T3 line that has bbeen transfected with Her2 receptor kinase.

For another experiment, the system named is Her2Neu. The experiment is described as above. To be noted: Her2Neu (3T3 line transfected with Her2 receptor kinase); 48 hours exposure. In kind it is cell-based. The protocol: as §2
In the next experiment the test system is LOX. The experiment is described as above. In kind it is cell-based, Human. To be noted: Homo sapiens, 48 hours exposure, read-out: IC50. The protocol: as §1
Another experiment has as its system MCF7. The description is as above. In kind it is cell-based. To be noted: Homo sapiens, 48 hours exposure. The protocol: as §2
For a further experiment, the system named is A2780DDP. The description is as above. The experiment is classed as cell-based, Human. The note with it: Homo sapiens, 48 h, 48 hours exposure, read-out: IC50. The protocol: as §1
The test system of another experiment is A2780S. Described as above. In kind it is cell-based, Human. To be noted: Homo sapiens, 48 h, 48 hours exposure, read-out: IC50. Here is the method: as §1
In experiment [2] the target is T2, KDR; the catalytic domain of the VEGF receptor (Homo sapiens, UniProt P35968).
T2 construct: KDR; the catalytic domain of the VEGF receptor
T2 sequence (P35968 834-1162 limits assumed): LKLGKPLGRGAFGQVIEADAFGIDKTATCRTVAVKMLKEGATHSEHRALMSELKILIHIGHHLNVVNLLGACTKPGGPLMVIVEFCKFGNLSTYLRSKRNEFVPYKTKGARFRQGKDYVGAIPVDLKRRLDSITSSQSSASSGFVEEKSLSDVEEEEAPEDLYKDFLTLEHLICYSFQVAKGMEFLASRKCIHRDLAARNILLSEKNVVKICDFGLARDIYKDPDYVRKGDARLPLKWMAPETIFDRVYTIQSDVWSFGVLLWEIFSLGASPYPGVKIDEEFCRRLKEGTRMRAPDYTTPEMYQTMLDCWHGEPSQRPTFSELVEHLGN
Briefly: Inhibition of Kinase insert Domain containing Receptor (KDR), radioactive substrate phosphorylation. To be noted: pH 7.2; substrate copolymer of glutamic acid and tyrosine, E:Y = 4:1. In kind it is biochemical. Here is the method:
In this standard pharmacological test procedure, KDR protein is mixed, in the presence or absence of an inhibitor compound, with a substrate peptide to be phosphorylated (a copolymer of glutamic acid and tyrosine, E:Y = 4:1) and other cofactors such as Mg^++ and sodium vanadate (a protein tyrosine phosphatase inhibitor) in an appropriate buffer to maintain pH (7.2). ATP and a radioactive tracer (either P^32- or P^33- labeled ATP) is then add to initiate phosphorylation. After incubation, the radioactive phosphate associated with the acid-insoluble fraction of the assay mixture is then quantified as reflection of substrate phosphorylation. This radioactive format was used to identify inhibitors of KDR tyrosine kinase activity where the IC50 is the concentration of drug that inhibits substrate phosphorylation by 50%.

The mark [3] stands for this setting: recombinant His-tagged cytoplasmic domain of EGFR, RR-SRC peptide, 90 min at room temperature, read-out: IC50.
Where [4] appears, read: Homo sapiens, A-431, 48 h, read-out: IC50.

In brackets after ≈: the same amount, converted by molar mass. Where two headings read alike, the source gives them in different places. A value given as a limit tells only on which side of the number the result lay.

As usually defined, the inhibition is the share of the control response that was lost under treatment. As usually defined, the IC50 is the midpoint of a concentration-inhibition curve. Regarding `CN(C)CCOc1cc2c(Nc3ccc(F)c(Cl)c3)c(C#N)cnc2cn1` [Example 74, 4-(3-Chloro-4-fluoro-phenylamino)-6-(2-dimethylamino-ethoxy)-[1.7]naphthyridine-3-carbonitrile], in experiment [1] (0.5 µM concentration of test compound, read-out: % Inhibition @ 0.5), the inhibition at 0.5 µM turned out to be 31.3%. In addition, the IC50 in experiment [1] (setting [3]) is 1000 nM; in the experiment with A431 (setting [4]), 2.23 µg/mL (≈ 5.77 µM); in the experiment on MDA435 it was above 5 µg/mL; in the experiment on SKBR3 it was 4.63 µg/mL (≈ 12 µM); in the experiment with SW620, above 5 µg/mL; with 3T3 (Mus musculus, NIH3T3, 48 hours exposure, read-out: IC50), 4.48 µg/mL (≈ 11.6 µM). In the experiment with Her2Neu, this molecule gave an IC50 above 5 µg/mL.
Consider `CNc1cc2c(Nc3cccc(Br)c3)c(C#N)cnc2cn1` [Example 64, 4-(3-Bromo-phenylamino)-6-methylamino-[1.7]naphthyridine-3-carbonitrile], for which the IC50 in experiment [1] (setting [3]) came out at 6 nM; in the experiment with A431, 0.209 µg/mL (≈ 0.59 µM); with A431 (setting [4]), 0.31 µg/mL (≈ 0.875 µM); with LOX, 3.6 µg/mL (≈ 10.2 µM); with SKBR3, 1.88 µg/mL (≈ 5.3 µM); in the experiment on SW620 it was 4.62 µg/mL (≈ 13 µM). In addition, the IC50 in the experiment with MCF7 was found to be 3.87 µg/mL (≈ 10.9 µM).
Take `CC#CC(=O)Nc1cc2c(Nc3cccc(Br)c3)c(C#N)cnc2cn1` [Example 61, But-2-ynoic acid, [4-(3-bromo-phenylamino)-3-cyano-[1.7]-naphthyridin-6-yl]-amide]: the IC50 in [1] (setting [3]) was determined as 20 nM; in the experiment on A2780DDP, 0.13 µg/mL (≈ 0.32 µM); with A2780S, 0.06 µg/mL (≈ 0.148 µM); in the experiment on A431 (setting [4]) it was 0.23 µg/mL (≈ 0.566 µM); in the experiment with LOX, 0.07 µg/mL (≈ 0.172 µM); with MDA435, 0.88 µg/mL (≈ 2.17 µM). Moreover, the figures for the IC50 with SKBR3, with SW620 and with MCF7 were 0.12 µg/mL (≈ 0.295 µM), 0.17 µg/mL (≈ 0.418 µM) and 0.4 µg/mL (≈ 0.985 µM), respectively.
Regarding `Cc1ccc(Nc2c(C#N)cnc3cnc(F)cc23)cc1O` [Example 66, 6-Fluoro-4-(3-hydroxy-4-methyl-phenylamino)-[1.7]naphthyridine-3-carbonitrile], the IC50 in experiment [2] was found to be 33.9 µg/mL (≈ 115 µM).
For `CN(C)CC=CC(=O)Nc1cc2c(Nc3cccc(Br)c3)c(C#N)cnc2cn1` [Example 62, 4-Dimethylamino-but-2-enoic acid, [4-(3-bromo-phenylamino)-3-cyano-[1.7]naphthyridin-6-yl]-amide], the IC50 in experiment [1] was determined as 5 nM; with A431 (setting [4]), 0.088 µg/mL (≈ 0.195 µM); in the experiment on MDA435, 0.464 µg/mL (≈ 1.03 µM); in the experiment with SKBR3, 0.0357 µg/mL (≈ 0.079 µM); with SW620, 0.356 µg/mL (≈ 0.789 µM); in the experiment with 3T3 (48 hours exposure), 0.2716 µg/mL (≈ 0.602 µM). In addition, the IC50 in the experiment on 3T3 (Mus musculus, NIH3T3, 48 h, 48 hours exposure, read-out: IC50) came out at 0.373 µg/mL (≈ 0.826 µM). The inhibition at 0.5 µM in [1] (read-out: % Inhibition @ 0.5 (µM)) is 97.4%.
